Consider six compounds from publication PMC6715681, “A high-throughput screen to identify novel synthetic lethal compounds for the treatment of E-cadherin-deficient cells” (Scientific Reports, 2019).

Assay [1] deals with MCF10A WT cells. Briefly: 11-point dose-response screen, cell titre blue (CTB) viability. Type of assay: cell-based, human. To be noted: for EC50 / activity at 20 µM: Homo sapiens, MCF-10A; for activity at 20 µM: viability of WT cells at highest concentration 20 μM, read-out: MCF10A WT POC at 20 μM. The protocol: (§1) The 11-point dose-response screen evaluated a concentration range from 0.02 µM to 20 µM for both isogenic cell lines in duplicate biological replicates (Fig. 4). One limitation to metabolism-based cellular assays is that a change in read out (fluorescence, luminescence or absorbance) may not necessarily be caused by cell death and could instead result from a cessation of proliferation due to senescence or inhibited mitochondrial respiration. For this reason, a direct measurement of cell counts using cellular imaging of nuclei stained with Hoechst 33342 was also included at the 11-point screening stage. For the CTB 11-point screen all plates had acceptable Z’ values above 0.4, with the second biological replicate having 70% above 0.6 (Fig. 4A). The Z’ values for the high-content imaging (HCI) 11-point screen plates were above 0.4 for MCF10A WT, except one plate from biological replicate two with 0.396 (Fig. 4B). However, for MCF10A CDH1^−/− HCI data, only four plates were above a Z’ of 0.4 and the mean Z’ was 0.32 compared to a mean of 0.51 for MCF10A WT. A further quality metric known as the strictly standardized mean difference (SSMD)[40] is a less conservative approach for QC and a cut-off of >3 is generally used. The mean SSMD value was 7.04 for MCF10A WT and 5.27 for MCF10A CDH1^−/− plates and indicates the MCF10A CDH1^−/− HCI data was acceptable[41]. There was a good correlation between the top hits from the HCI and CTB 11-point screening with an overlap of 31 / 40 for the top 40 compounds selected from the eventual hit selection strategies.
(§2) MCF10A WT and MCF10A CDH1^−/− cells were seeded into Corning black walled, clear bottom 384-well plates (assay plates) using a multidrop 384 reagent dispenser (Thermo Fisher Scientific) and a total volume of 50 μL per well.
(§3) As we have shown MCF10A CDH1^−/− cells have a prolonged lag to log phase growth of around 24 hours, in order to achieve a similar confluence at 72 hours post seeding MCF10A WT and MCF10A CDH1^−/− cell lines were seeded at 600 cells/well and 800 cells/well, respectively. Following seeding, plates were left for one hour at RT without stacking[46] and then centrifuged at 500 × g (RCF) for one minute. Plates were then transferred to an incubator at 37 °C and 5% CO2. At 24 hours post seeding, the MiniTrak robotic liquid handling system (Perkin Elmer) was used to transfer 352 compounds per 384-well library plate to the first 22 columns of a 384-well assay plate containing cells to achieve a 10 μM final compound concentration for the pilot, primary and single-point confirmation screens. For the 11-point dose-response screen, compounds were added to columns 1–22, but excluding edge rows A and P of the library plate to reduce edge-effects (Supplementary Fig. 2). The controls of DMSO (0.2% v/v), doxorubicin (EC80) and entinostat (EC50) were added into columns 23–24 of each assay plate (Supplementary Table 1). Cell titre blue[47] was made in-house in sterile PBS from 597 μM resazurin, 78 μM methylene blue, 1 mM potassium hexacyanoferrate (III) and 1 mM potassium hexacyanoferrate (II) trihydrate. At 69 hours post seeding, 16.7% v/v CTB was added to plates and they were incubated at 37 °C for 3 hours (Supplementary Fig. 1). At 72 hours post seeding, plates were removed from the incubator and left for 30 minutes at RT to equalise the temperature across all wells of the plates and reduce fluorescence-based edge effects before reading on an EnVision (PerkinElmer) at 550 nm excitation and 590 nm emission to quantify cell viability.
(§4) Supplementary Table 1. Killing control and SL control effective concentrations.
(§5) Doxorubicin EC80 0.3 µM 0.4 µM
(§6) MCF10A WT cells were seeded at 600/well and MCF10A CDH1-/- cells at 800/well in 384-well plates. Drugs
(§7) were added at 24 hours post seeding and CTB was used as an end-point assay. Concentrations were normalized

Assay [2] concerns MCF10A CDH1^−/− cells. Described as above. As to conditions: for EC50: Homo sapiens, MCF-10A; for Differential at 20 μM: MCF10A WT – MCF10A CDH1−/− POC at 20 μM. Type of assay: cell-based, human. The protocol: as §1, §2, §3, §4, §5, §6, §7
Assay [3] deals with MCF10A WT and MCF10A CDH1^−/− cells. Put plainly: Single-point confirmation screen (10 μM, CTB, 384-well), viability differential between isogenic lines. As to conditions: averaged between three biological replicates, Supplementary Table 2. Type of assay: cell-based, human. The protocol: In the single-point confirmation screen, compounds that preferentially harm MCF10A CDH1^−/− cells compared to the wild-type cells were now identified. Three biological replicates were performed for each of the isogenic cell lines at a single-point (10 μM) in 384-well plates. All assay plates had acceptable Z’ values above 0.4 and 23 out of 48 plates had values above 0.6. The POC R^2 correlation between the three biological replicates for the two isogenic cell lines were all above 0.8 (data not shown). A cell viability differential of ‘MCF10A WT POC – MCF10A CDH1^−/− POC’ was used to select hits. An arbitrary threshold for the mean differential of >8.5% was chosen in order to maximize the number of hits being screened in the subsequent stages and to reduce false negatives.
To incorporate a measure of the variability between replicates of the screen into the hit selection process, a further requirement was included of a minimum of 2/3 biological replicates having viability differentials >8.5%. This removed a further 52 compounds shown in blue with only one out of three biological replicates crossing the Y = X-8.5 line independent of the mean. In total, 256 compounds were above the hit selection threshold, thereby preferentially killing E-cadherin negative cells. The mean POC differential of the 256 hits was 17.6% +/− 7.1 (+/−SD), with the highest being 48% for SLEC-1 (Synthetic Lethal E-Cadherin compound 1). […] The resulting 256 SL compounds were then assayed in an 11-point screen for EC50 determination.
as §2
As we have shown MCF10A CDH1^−/− cells have a prolonged lag to log phase growth of around 24 hours, in order to achieve a similar confluence at 72 hours post seeding MCF10A WT and MCF10A CDH1^−/− cell lines were seeded at 600 cells/well and 800 cells/well, respectively. […] At 72 hours post seeding, plates were removed from the incubator and left for 30 minutes at RT to equalise the temperature across all wells of the plates and reduce fluorescence-based edge effects before reading on an EnVision (PerkinElmer) at 550 nm excitation and 590 nm emission to quantify cell viability.
The coRFU values were then used to calculate the normalized readouts of percent of controls (Eq. 3) and the robust Z score (Eqs 4,5), where doxorubicin refers to an EC80 dose and DMSO was 0.2% v/v.3 coPOC=100×(SamplecoRFU−x¯doxorubicincoRFU)/(x¯DMSOcoRFU−x¯doxorubicincoRFU) 4 MAD=median([…]) 5 CorrectedrobustZscore=(SamplecoRFU−platemediancoRFU)/MAD

The test system of assay [4] is MCF10A WT cells. Briefly: 11-point dose-response screen, high-content imaging (HCI) of Hoechst 33342 nuclei. As to conditions: Homo sapiens, MCF-10A, 11-point screen. In kind it is cell-based. Here is the method: as §1
(§8) A direct measurement of cell counts using cellular imaging of nuclei was also included at the 11-point screening stage. Plates were fixed, washed and stained using an ELx405 Select deep well washer (BioTek). Media was first aspirated leaving 10 μL/well, then 4% w/v PFA was added and plates left for 15 minutes at RT. Plates were then washed twice with PBS-T, before aspirating all permeabilization buffer and adding Hoechst 33342 (1 μg/mL final) in PBS. Plates were then stored in the dark at 4 °C, until being imaged on a BD Pathway 855. Two 10x images per well were taken and cell counts enumerated using CellProfiler[48].

The test system of assay [5] is MCF10A CDH1^−/− cells. Put plainly: Medium-throughput validation in 96-well plates, Hoechst-33342 nuclei counts (CellProfiler). Type of assay: cell-based, human. To be noted: for EC50 ratio (MCF10A WT/MCF10A CDH1^−/−) / EC50: 96-well validation; for EC50: Homo sapiens, MCF-10A, Hoechst nuclei counts, at least five concentration points; for Differential at 5 µM (%): normalized cell counts MCF10A WT – MCF10A CDH1^−/−, 96-well, 48 h post compound addition. Here is the method:
(§9) Cells were seeded into each well of Corning’s black walled, clear bottom 96-well plates with a total volume of 100 μL per well. Edge wells were excluded. Both isogenic cell lines were seeded into the same plate to mitigate plate-to-plate variation. Plates for real-time analysis were transferred to the xCELLigence platform (ACEA Biosciences, USA) or the IncuCyte FLR imaging system (Essen BioScience, USA) as previously described.
(§10) Seventy-two hours post seeding (or 48 hours post compound addition), plates were assayed for cell viability using a one-step cocktail of PFA (0.25% v/v), saponin (0.075% w/v) and Hoechst 33342 (1 μg/ml final) as described previously. CellProfiler was used to enumerate cell counts as previously described.

For assay [6], the system named is MCF10A CDH1^−/− cells. Briefly: 11-point dose-response screen, high-content imaging (HCI) of Hoechst 33342 nuclei. Type of assay: cell-based, human. To be noted: Homo sapiens, MCF-10A; 11-point screen, HCI. Here is the method: as §1, §8
The subject of assay [7] is MCF10A WT cells. Briefly: Medium-throughput validation in 96-well plates, Hoechst-33342 nuclei counts (CellProfiler). In kind it is cell-based. As to conditions: Homo sapiens, MCF-10A, 96-well validation, at least five concentration points. Here is the method:
as §9, §10

[8] abbreviates: killing control, 384-well, CTB, 11-point curve, 72 hrs post seeding.
The mark [9] stands for this setting: 11-point screen (0.02–20 µM), CTB values, two biological replicates, for EC50 values > 20, a value of 20 was used, read-out: MCF10A WT EC50.
The mark [10] stands for this setting: 11-point screen (0.02–20 µM), CTB values, averaged between two biological replicates, Supplementary Table 2, read-out: MCF10A CDH1 -/- EC50.
Setting [11] is: 11-point screen, CTB, read-out: MCF10A CDH1^-/- CTB EC50.

Marks after values point to notes of the source that are not given here. Where only a bound is given, the exact number is not on record here.

On to `COc1cccc2c1C(=O)c1c(O)c3c(c(O)c1C2=O)C[C@@](O)(C(=O)CO)C[C@@H]3O[C@H]1C[C@H](N)[C@H](O)[C@H](C)O1` [Doxorubicin, doxorubicin, reference compound], for which, in the assay on MCF10A WT cells [1] (setting [8]), the “EC80, MCF10A WT” value came to 0.3 µM. The “EC80, MCF10A CDH1-/-” value in the assay on MCF10A CDH1^−/− cells [2] (setting [8]) is 0.4 µM.

As for `Nc1ccccc1NC(=O)c1ccc(CNC(=O)OCc2cccnc2)cc1` [Entinostat, entinostat, reference compound], the EC50 stood at 3.2 µM with MCF10A WT cells [1] (SL control, 384-well, CTB, 11-point curve, 72 hrs post seeding, read-out: EC50, MCF10A WT) and 2.4 µM with MCF10A CDH1^−/− cells [2] (SL control, 384-well, CTB, 11-point curve, 72 hrs post seeding, read-out: EC50, MCF10A CDH1-/-).

`COc1ccc2nccc(Nc3cccc(C(C)=O)c3)c2c1` [SLEC-2]: the “Differential at 1-pt” value in assay [3] is 39.99. In addition, the EC50 with MCF10A WT cells [1] (setting [9]) came to 17.7 µM; in the assay on MCF10A CDH1^−/− cells [2] (setting [10]), 3.21 µM. Besides, in the assay with MCF10A WT cells [1] (11-point screen), the activity at 20 µM came to 42.3%. For the same compound, in the assay with MCF10A CDH1^−/− cells [2] (11-point screen), the “Differential at 20 μM” value is 49.66.

For the compound `COc1cc(Cl)c(C)cc1NC(=O)c1ccc(CN2CCCC2)cc1` [SLEC-6], the EC50 with MCF10A WT cells [4] is greater than 20 µM; in the assay on MCF10A CDH1^−/− cells [5] it was 14.5 µM; with MCF10A WT cells [1] (11-point screen, CTB, read-out: MCF10A WT CTB EC50), greater than 20 µM; with MCF10A CDH1^−/− cells [2] (setting [11]), 17.3 µM; in the assay on MCF10A CDH1^−/− cells [6] it was 7.79 µM; with MCF10A WT cells [7] it was 22.6 µM. In the assay on MCF10A CDH1^−/− cells [5], the “EC50 ratio (MCF10A WT/MCF10A CDH1^−/−)” value is reported as 1.56. Further, the “Differential at 5 µM (%)” value with MCF10A CDH1^−/− cells [5] is 20.78* %.

Consider `COc1ccc2nc(C)cc(NCC(=O)Nc3cccc(C)c3C)c2c1` [SLEC-12], for which the “Differential at 1-pt” value in assay [3] is reported as 13.92. Also, the EC50 with MCF10A WT cells [4] turned out to be 12.6 µM; with MCF10A CDH1^−/− cells [5], 8.98 µM; in the assay on MCF10A WT cells [1] (setting [9]), 19.4 µM; in the assay with MCF10A CDH1^−/− cells [2] (setting [11]) it was 3.06 µM; in the assay with MCF10A CDH1^−/− cells [6], 2.45 µM; in the assay with MCF10A WT cells [7] it was 13 µM. In the assay on MCF10A CDH1^−/− cells [5], the “EC50 ratio (MCF10A WT/MCF10A CDH1^−/−)” value was found to be 1.45. The “Differential at 5 µM (%)” value with MCF10A CDH1^−/− cells [5] is listed as 11.47%. Further, the activity at 20 µM with MCF10A WT cells [1] (11-point screen) stood at 45%. Besides, in the assay with MCF10A CDH1^−/− cells [2] (11-point screen), the “Differential at 20 μM” value is on record as 65.85. In addition, the “EC50 ratio between MCF10A WT and MCF10A CDH1^−/− cells” value in the assay on MCF10A CDH1^−/− cells [2] (11-point screen, value corresponds to the CTB EC50s of Fig. 5) was determined as 6.34 fold change.

In the case of `CCOc1ccc2nc(C)cc(SCC(O)C(=O)O)c2c1` (stereo not shown) [SLEC-20], the “Differential at 1-pt” value in assay [3] came to 23.81. The EC50 in the assay with MCF10A WT cells [1] (setting [9]) was greater than 20 µM; in the assay on MCF10A CDH1^−/− cells [2] (setting [10]), 9.38 µM. For the same compound, the activity at 20 µM in the assay on MCF10A WT cells [1] (11-point screen) was found to be 92.9%. The “Differential at 20 μM” value in the assay with MCF10A CDH1^−/− cells [2] (11-point screen) is recorded as 70.17.
